Reference: patent publication US20230382926A1, “COMPOUNDS AND USES THEREOF” (The University of The West Indies, priority 2022, published 2023)

Legend:
K. pneumoniae = test: Rescue concentration of substituted phenyl azaindole derivatives; format: cell-based; details: for Rescue concentration, K. pneumoniae Ciprofloxacin (1 μg/mL): Ciprofloxacin fixed at 1 μg/mL; for Rescue concentration, K. pneumoniae Imipenem (1 μg/mL): Imipenem fixed at 1 μg/mL
Protocol: (§1) The antibiotic adjuvant activity of the SPazaBIMs were evaluated in combination with representative antibiotics (representing 13 antibiotic classes) against the 19 pathogens strains listed in Table 3. To assess the adjuvant properties of the SP-azaBIM molecules, a modified checkerboard minimum inhibitory concentration assay was used. A fixed concentration of the respective antibiotic (susceptible breakpoint concentration) was mixed with a twofold dilution series of the test SP-azaBIM (FIG. 1). This was to determine the concentration of SP-azaBIM needed potentiate the antibiotic at a clinically susceptible breakpoint concentration. Antibiotic susceptible breakpoint concentrations for the respective bacteria were determined using Clinical Laboratory Standards Institute (CLSI) criteria M100 ED31.
(§2) In this study, only those antibiotics to which the bacterial was classed as resistant were included in the adjuvant assays. In this assay we recorded the rescue concentration of the SP-BIM for a respective antibiotic. The rescue concentration was defined as the concentration of the adjuvant that reduces the minimum inhibitory concentration (MIC) of an antibiotic to the susceptibility breakpoint.
(§3) Immediately prior to testing, the respective antibiotic and SP-azaBIM was dissolved in sterile deionised water at 20× the required test concentration. Each microtiter well was then inoculated with 180 μl of bacterial inoculum of 10^6 CFU/ml in ca-MHB, and 10 μl each if the antibiotic and SP-azaBIM was added to the plates. These plates were then incubated at 35° C. for 24 h under aerobic conditions. A similar method was followed for the fastidious pathogens except that they were cultured in ca-MHB with 5% sheep blood and 5% CO2.
(§4) Bacterial growth was visually inspected after the incubation period and the rescue concentration of the test SP-azaBIM was determined as the lowest concentration of the compound needed to reduce bacterial growth by 99.99% at the susceptible breakpoint concentration of the antibiotic. For example, CLSI states that Pseudomonas aeruginosa is susceptible to the Imipenem if the MIC is ≤2 μg mL^−1. If the bacteria can tolerate this concentration in vitro, then the bacteria has an intermediate or absolute resistance toward that antibiotic. The goal was to determine the concentration of SP-azaBIM needed to cause P. aeruginosa death at 2 μg mL^−1 of Imipenem therefore restoring susceptibility of the bacteria to toward the antibiotic.
(§5) Phenyl azaindole compounds are also tested for their adjuvant activities and the method is shown in Example 39.

P. aeruginosa = test: as above; format: cell-based; details: Imipenem fixed at 1 μg/mL
Protocol: as §1, §2, §3
Bacterial growth was visually inspected after the incubation period and the rescue concentration of the test SP-azaBIM was determined as the lowest concentration of the compound needed to reduce bacterial growth by 99.99% at the susceptible breakpoint concentration of the antibiotic. […] If the bacteria can tolerate this concentration in vitro, then the bacteria has an intermediate or absolute resistance toward that antibiotic. […]
as §5

MRSA = test: as above; format: cell-based, Staphylococcus aureus; details: Amoxicillin fixed at 2 μg/mL
Protocol: as §1, §2, §3, §4, §5

[1] = system: Carbapenem resistant Acinetobacter baumannii; test: Broth microdilution minimum inhibitory concentration; format: cell-based; details: compound alone
Protocol: (§6) Antibacterial activity of the synthesized compounds was determined following guidelines established by the Clinical and Laboratory Standards Institute M07-A10 (CLSI 2015), following the broth microdilution method. Briefly, the test articles were dissolved in 100% DMSO, diluted by 2-fold serial titrations in the same vehicle (100% DMSO), for a total of 11 concentrations. A 4 μL aliquot of each dilution was then added to 196 μL of broth medium seeded with the bacterial suspension in wells of a 96 well plate (bacterial count: 2×10^5 to 8×10^5 colony forming units/mL final). The highest test substance concentration was 1028 μg/mL, and the final vehicle concentration was 2 percent. Following incubation, the test plate was visually examined, and each well was scored for growth or complete inhibition of growth. The minimum inhibitory concentration was determined as the lowest concentration were no growth of the bacterial was observed. Each test article was assayed in duplicate.

[2] = system: Methicillin resistant Staphylococcus aureus; test: as above; format: cell-based; details: compound alone
Protocol: as §6

[3] = system: Carbapenem resistant Klebsiella pneumoniae; test: as above; format: cell-based; details: compound alone
Protocol: as §6

[4] = system: Multidrug resistant Pseudomonas aeruginosa; test: as above; format: cell-based; details: compound alone
Protocol: as §6

[5] = system: Vancomycin resistant Enterococcus faecalis; test: as above; format: cell-based; details: compound alone
Protocol: as §6

MIC [1] [µg/mL]	MIC [2] [µg/mL]	MIC [3] [µg/mL]	MIC [4] [µg/mL]	MIC [5] [µg/mL]	Structure (SMILES)	Rescue concentration, K. pneumoniae Ciprofloxacin (1 μg/mL) (K. pneumoniae) [µg/mL]	Rescue concentration, K. pneumoniae Imipenem (1 μg/mL) (K. pneumoniae) [µg/mL]	Rescue concentration, P. aeruginosa Imipenem (1 μg/mL) (P. aeruginosa) [µg/mL]	Rescue concentration, MRSA Amoxicillin (2 μg/mL) (MRSA) [µg/mL]
< 1020	< 1020	< 1020	< 1020	< 1020	O=[N+]([O-])c1ccc(C(O)c2c[nH]c3ncccc23)cc1 (stereo not drawn) [Compound 4NO2-7aza-OH, (4-nitrophenyl)(1H-pyrrolo[2,3-b]pyridin-3-yl)methanol]	<256	<256	<256	32
< 1020	< 1020	< 1020	< 1020	< 1020	OC(c1cccc(Br)c1)c1c[nH]c2cnccc12 (stereo not drawn) [Compound 3Br-6aza-OH, (3-bromophenyl)(1H-pyrrolo[2,3-c]pyridin-3-yl)methanol]	4	4	32	1
< 1020	< 1020	< 1020	< 1020	< 1020	OC(c1ccc(Br)cc1)c1c[nH]c2ncc(Cl)cc12 (stereo not drawn) [4Br-5Cl-7aza-OH, (4-bromophenyl)(5-chloro-1H-pyrrolo[2,3-b]pyridin-3-yl)methanol]	32	32	256	8
< 1020	< 1020	< 1020	< 1020	< 1020	O=[N+]([O-])c1ccccc1C(O)c1c[nH]c2ncccc12 (stereo not drawn) [Compound 2NO2-7aza-OH, (2-nitrophenyl)(1H-pyrrolo[2,3-b]pyridin-3-yl)methanol]	<256	<256	<256	256
< 1020	< 1020	< 1020	< 1020	< 1020	O=Cc1cccc(C(O)c2c[nH]c3c(Cl)nccc23)c1 (stereo not drawn) [iso-7Cl-6aza-OH, 3-((7-chloro-1H-pyrrolo[2,3-c]pyridin-3-yl)(hydroxy)methyl)benzaldehyde]	<256	<256	<256	32
< 1020	< 1020	< 1020	< 1020	< 1020	Oc1ccc(C(O)c2c[nH]c3cnccc23)cc1 (stereo not drawn) [Compound 4OH-6aza-OH, 4-(hydroxy(1H-pyrrolo[2,3-c]pyridin-3-yl)methyl)phenol]	<256	<256	256	32
< 1020	< 1020	< 1020	< 1020	< 1020	Nc1cccc(C(O)c2c[nH]c3cnccc23)c1 (stereo not drawn) [Compound 3NH2-6aza-OH, (3-aminophenyl)(1H-pyrrolo[2,3-c]pyridin-3-yl)methanol]	64	32	32	8
< 1020	< 1020	< 1020	< 1020	< 1020	O=[N+]([O-])c1ccc(C(O)c2c[nH]c3cnc(Cl)cc23)cc1 (stereo not drawn) [4NO2-5Cl-6aza-OH, (5-chloro-1H-pyrrolo[2,3-c]pyridin-3-yl)(4-nitrophenyl)methanol]	<256	<256	128	<256
< 1020	< 1020	< 1020	< 1020	< 1020	O=[N+]([O-])c1cccc(C(O)c2c[nH]c3ncc(Cl)cc23)c1 (stereo not drawn) [3NO2-5Cl-7aza-OH, (5-chloro-1H-pyrrolo[2,3-b]pyridin-3-yl)(3-nitrophenyl)methanol]	<256	<256	<256	<256
< 1020	< 1020	< 1020	< 1020	< 1020	O=[N+]([O-])c1cccc(C(c2c[nH]c3cnccc23)c2c[nH]c3cnccc23)c1 [3NO2-Bis-6aza, 3,3′-((3-nitrophenyl)methylene)bis(1H-pyrrolo[2,3-c]pyridine)]	<256	<256	<256	<256
< 1020	< 1020	< 1020	< 1020	< 1020	OC(c1ccc(Br)cc1)c1c[nH]c2cnc(Br)cc12 (stereo not drawn) [4Br-5Br-6aza-OH, (5-bromo-1H-pyrrolo[2,3-c]pyridin-3-yl)(4-bromophenyl)methanol]	<256	<256	<256	4
< 1020	< 1020	< 1020	< 1020	< 1020	OC(c1ccc(Br)cc1)c1c[nH]c2cnccc12 (stereo not drawn) [Compound 4Br-6aza-OH, (4-bromophenyl)(1H-pyrrolo[2,3-c]pyridin-3-yl)methanol]	4	8	16	32
< 1020	< 1020	< 1020	< 1020	< 1020	COc1ccc(C(O)c2c[nH]c3cnc(Br)cc23)cc1OC (stereo not drawn) [3,4 Di methoxy 5Br-6aza-OH, (5-bromo-1H-pyrrolo[2,3-c]pyridin-3-yl)(3,4-dimethoxyphenyl)methanol]	<256	<256	<256	2
< 1020	< 1020	< 1020	< 1020	< 1020	O=[N+]([O-])c1ccc(C(O)c2c[nH]c3c(Cl)nc(Br)cc23)cc1 (stereo not drawn) [4NO2-5Br-7Cl-6aza-OH, (5-bromo-7-chloro-1H-pyrrolo[2,3-c]pyridin-3-yl)(4-nitrophenyl)methanol]	<256	<256	<256	16
